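Cultured in 96-well plates, cells were exposed to test compound for 48 hours across five concentrations. Abbreviation: GI50, concentration required for 50% inhibition of growth. TGI: concentration producing complete growth inhibition.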
Legend:
Assay in all cases: growth of human tumour cells (NCI), 48 h
[1] = system: COLO 205 colon
[2] = system: U251 CNS
[3] = system: M14 melanoma
[4] = system: HOP-62 NSCLC
[5] = system: SW-620 colon
[6] = system: SN12C renal
[7] = system: HS 578T breast
[8] = system: NCI-H226 lung
[9] = system: UACC-62 melanoma
[10] = system: SF-268 CNS

## Cc1ccc2oc(=O)cc(C3c4ccc([nH]4)C(c4cc(=O)oc5ccc(C)cc45)c4ccc([nH]4)C(c4cc(=O)oc5ccc(C)cc45)c4ccc([nH]4)C(c4cc(=O)oc5ccc(C)cc45)c4ccc3[nH]4)c2c1 (centres undefined)
[1]
  GI50: 0.165 µM
  TGI: 0.353 µM
[2]
  GI50: 0.0369 µM
  TGI: 1.27 µM
[3]
  GI50: 0.0253 µM
  TGI: 0.0766 µM
[4]
  GI50: 0.0463 µM
  TGI: 1.27 µM
[5]
  GI50: 0.0352 µM
  TGI: 3.34 µM
[6]
  GI50: 0.0586 µM
  TGI: 1.74 µM
[7]
  GI50: 0.0351 µM
  TGI: 2.02 µM
[8]
  GI50: 0.0865 µM
  TGI: 2.78 µM
[9]
  GI50: 0.0324 µM
  TGI: 0.8 µM
[10]
  GI50: 0.0561 µM
  TGI: 1.47 µM

## c1cc(C2N3CCCN2CC3)ccn1 (centres undefined)
[1]
  TGI: > 100 µM
[2]
  TGI: > 100 µM
[3]
  TGI: > 100 µM
[4]
  TGI: > 100 µM
[5]
  TGI: > 100 µM
[6]
  TGI: > 100 µM
[7]
  TGI: 67.7 µM
[8]
  TGI: > 100 µM
[9]
  TGI: > 100 µM
[10]
  TGI: 30.4 µM

## C=C(C)C(=O)N1c2ccc(OC)cc2CC1C(=O)OCC (centres undefined)
[1]
  TGI: > 100 µM
[2]
  TGI: > 100 µM
[3]
  TGI: > 100 µM
[4]
  TGI: > 100 µM
[5]
  TGI: > 100 µM
[6]
  TGI: > 100 µM
[7]
  TGI: > 100 µM
[8]
  TGI: > 100 µM
[9]
  TGI: > 100 µM
[10]
  TGI: > 100 µM

## CC(C)(C)n1cc(-c2ccnc(NCCCNS(=O)(=O)c3ccc(Cl)cc3)c2)c(-c2cccc(O)c2)n1
[1]
  GI50: 1.66 µM
  TGI: 3.39 µM
[2]
  GI50: 1.62 µM
  TGI: 3.42 µM
[3]
  GI50: 1.72 µM
  TGI: 3.45 µM
[4]
  GI50: 1.74 µM
  TGI: 3.52 µM
[5]
  GI50: 1.77 µM
  TGI: 3.56 µM
[6]
  GI50: 1.65 µM
  TGI: 3.1 µM
[7]
  GI50: 1.84 µM
  TGI: 4.81 µM
[8]
  GI50: 2.11 µM
  TGI: 5.04 µM
[9]
  GI50: 1.65 µM
  TGI: 3.29 µM
[10]
  GI50: 2.18 µM
  TGI: 5.78 µM

## COc1cc2c(cc1-c1c(C)noc1C)ncc1[nH]c(=O)n([C@H](C)c3ccccn3)c12
[1]
  GI50: 0.241 µM
  TGI: > 35.6 µM
[2]
  GI50: 8.82 µM
  TGI: > 100 µM
[3]
  GI50: 3.19 µM
  TGI: > 100 µM
[4]
  GI50: 0.94 µM
  TGI: > 100 µM
[5]
  GI50: 28.1 µM
  TGI: > 100 µM
[6]
  GI50: 4.48 µM
  TGI: > 100 µM
[7]
  GI50: 0.295 µM
  TGI: > 100 µM
[8]
  GI50: 12.1 µM
  TGI: > 100 µM
[9]
  GI50: 0.145 µM
  TGI: > 87.2 µM
[10]
  GI50: 11.7 µM
  TGI: > 100 µM

## CCOC(CN(C)C(=O)OCC(Cl)(Cl)Cl)OCC
[1]
  TGI: > 100 µM
[2]
  TGI: > 100 µM
[3]
  TGI: > 100 µM
[4]
  TGI: > 100 µM
[5]
  TGI: > 100 µM
[6]
  TGI: > 100 µM
[7]
  TGI: > 100 µM
[8]
  TGI: > 100 µM
[9]
  TGI: > 100 µM
[10]
  TGI: > 100 µM

## COC(=O)C1=C2CO[C@@H]3C[C@H]4C(C)(C)CCC[C@]4(C)C(=CC1)[C@]23C
[1]
  GI50: 28.2 µM
  TGI: 71 µM
[2]
  GI50: 43.4 µM
  TGI: > 100 µM
[3]
  GI50: 32.6 µM
  TGI: > 100 µM
[4]
  GI50: 45.1 µM
  TGI: > 100 µM
[5]
  GI50: 39.5 µM
  TGI: > 100 µM
[6]
  GI50: 35.1 µM
  TGI: > 100 µM
[7]
  GI50: 47 µM
  TGI: > 100 µM
[8]
  GI50: 56.5 µM
  TGI: > 100 µM
[9]
  GI50: 41.9 µM
  TGI: > 100 µM
[10]
  GI50: 98.3 µM
  TGI: > 100 µM

## c1cc(-c2cnn3nc(N4CCOCC4)ccc23)nc(NC2CC2)n1
[1]
  GI50: 8.06 µM
  TGI: > 23.5 µM
[2]
  GI50: 6.97 µM
  TGI: > 25 µM
[3]
  GI50: 9.04 µM
  TGI: > 25 µM
[4]
  GI50: 9.27 µM
  TGI: > 25 µM
[5]
  GI50: 8.9 µM
  TGI: > 25 µM
[6]
  GI50: 8.83 µM
  TGI: > 25 µM
[7]
  GI50: 8.12 µM
  TGI: > 22.8 µM
[8]
  GI50: 5.59 µM
  TGI: > 25 µM
[9]
  GI50: 7.76 µM
  TGI: > 25 µM
[10]
  GI50: 8.14 µM
  TGI: 24.6 µM

## Cc1cc(S(=O)(=O)Nc2nc3ccsc3c(=O)n2Cc2ccccc2)c(S)cc1Cl
[1]
  GI50: 37.5 µM
  TGI: > 100 µM
[2]
  GI50: 35.9 µM
  TGI: > 100 µM
[3]
  GI50: 21.8 µM
  TGI: 49.6 µM
[4]
  GI50: 22.7 µM
  TGI: 46.6 µM
[5]
  GI50: 34.1 µM
  TGI: > 100 µM
[6]
  GI50: 31.1 µM
  TGI: 58.8 µM
[7]
  GI50: 42.3 µM
  TGI: > 100 µM
[8]
  GI50: 34.5 µM
  TGI: 93.6 µM
[9]
  GI50: 21.5 µM
  TGI: 44.4 µM
[10]
  GI50: 30.6 µM
  TGI: > 100 µM

## CSc1ccc(C(=O)/C=C/c2ccc(F)cc2)cc1
[1]
  GI50: > 100 µM
  TGI: > 100 µM
[2]
  GI50: 32.9 µM
  TGI: > 100 µM
[3]
  GI50: > 100 µM
  TGI: > 100 µM
[4]
  GI50: > 100 µM
  TGI: > 100 µM
[5]
  GI50: 24.8 µM
  TGI: 70.8 µM
[6]
  GI50: > 100 µM
  TGI: > 100 µM
[7]
  GI50: > 100 µM
  TGI: > 100 µM
[8]
  GI50: 57.4 µM
  TGI: > 100 µM
[9]
  GI50: > 100 µM
  TGI: > 100 µM
[10]
  GI50: 75.9 µM
  TGI: > 100 µM

## Cc1cccc2cc3ccc4ccccc4c3cc12
[1]
  TGI: 39 µM
[2]
  TGI: > 100 µM
[3]
  TGI: > 100 µM
[4]
  TGI: > 100 µM
[5]
  TGI: > 100 µM
[6]
  TGI: > 100 µM
[7]
  TGI: > 100 µM
[8]
  TGI: > 100 µM
[9]
  TGI: > 100 µM
[10]
  TGI: > 100 µM

## CO[C@H]1/C=C/C[C@H](C)[C@@H](C)S(=O)(=O)NC(=O)c2ccc3c(c2)N(C[C@@H]2CC[C@H]21)C[C@@]1(CCCc2cc(Cl)ccc21)CO3
[1]
  GI50: 2.7 µM
  TGI: 6.6 µM
[2]
  GI50: 2.47 µM
  TGI: 6.86 µM
[3]
  GI50: 2.4 µM
  TGI: 7.31 µM
[4]
  GI50: 2.35 µM
  TGI: 6.2 µM
[5]
  GI50: 2.84 µM
  TGI: 10.3 µM
[6]
  GI50: 2.37 µM
  TGI: 6.63 µM
[7]
  GI50: 1.54 µM
  TGI: 7.24 µM
[8]
  GI50: 2.66 µM
  TGI: 7.4 µM
[9]
  GI50: 0.659 µM
  TGI: 2.46 µM
[10]
  GI50: 3.6 µM
  TGI: 14 µM

## O=C1/C(=C/c2ccc(C(F)(F)F)cc2)COc2ccc(O)cc21
[1]
  GI50: 2.47 µM
  TGI: 5.83 µM
[2]
  GI50: 1.66 µM
  TGI: 3.06 µM
[3]
  GI50: 3.24 µM
  TGI: 10.6 µM
[4]
  GI50: 12.8 µM
  TGI: 25.4 µM
[5]
  GI50: 1.71 µM
  TGI: 3.4 µM
[6]
  GI50: 1.73 µM
  TGI: 3.46 µM
[7]
  GI50: 2.7 µM
[8]
  GI50: 2.53 µM
  TGI: 8.21 µM
[9]
  GI50: 2.36 µM
  TGI: 6.84 µM
[10]
  GI50: 2.75 µM
  TGI: 13.6 µM

— PubChem BioAssay (NCI)
